This passage reports IC50 results from US9242929B2, “Compounds as diacylglycerol acyltransferase inhibitors” (GlaxoSmithKline Intellectual Property (No.2) Limited, priority 2011, dated 2016).

Molecules are shown by their SMILES. pIC50: −log10 of the molar value.

The test addresses T1, Human DGAT1 (Homo sapiens, UniProt O75907).
T1 construct: made in house; host or cells: Sf9 insect cells (baculovirus), microsomes
T1 sequence (O75907 1-488): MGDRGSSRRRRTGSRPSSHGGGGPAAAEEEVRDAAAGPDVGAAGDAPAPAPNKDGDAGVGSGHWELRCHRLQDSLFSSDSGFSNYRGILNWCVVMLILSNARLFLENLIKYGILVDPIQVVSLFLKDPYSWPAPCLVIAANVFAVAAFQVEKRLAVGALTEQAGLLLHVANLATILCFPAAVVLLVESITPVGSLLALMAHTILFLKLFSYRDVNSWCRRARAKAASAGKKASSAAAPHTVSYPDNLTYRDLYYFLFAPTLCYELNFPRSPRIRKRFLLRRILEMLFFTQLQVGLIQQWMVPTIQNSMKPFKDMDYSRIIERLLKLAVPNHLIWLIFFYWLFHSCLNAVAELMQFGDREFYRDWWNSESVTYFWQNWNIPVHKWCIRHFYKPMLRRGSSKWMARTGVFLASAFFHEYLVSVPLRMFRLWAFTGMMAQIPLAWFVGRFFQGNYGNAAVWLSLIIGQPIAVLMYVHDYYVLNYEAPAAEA
Kind of test: human DGAT1 fluorescence (CPM) assay, inhibition of CoA product formation. As to conditions: human DGAT1 fluorescene (CPM) assay; microsomes from Sf9 insect cells; read-out: hDGAT IC50. Format: biochemical. The method, then: Human DGAT1 was expressed in Sf9 insect cells using a baculovirus expression system. Microsomes were prepared and used as enzyme for in vitro inhibition testing in either of two formats measuring production of coenzyme A or tridecanoylglycerol product, respectively. All steps were performed at 21-23° C. All data for DGAT1 inhibition by test compounds were collected under conditions where product formation was linear with reaction time.
An equal volume (10 uL) of 3× enzyme in buffer was added and the components incubated for 30 minutes pre-reaction incubation to allow enzyme and test compounds to attain binding equilibrium. […] Some assays were performed with inclusion of didecanoylglycerol in the pre-reaction incubation of test compound and enzyme. DGAT reactions (30 uL) were initiated upon addition of 10 uL of 3× substrate solution. Final reaction conditions consisted of 20 mM HEPES pH 7.5, 2 mM MgCl2, 1 mM CHAPS, 50 uM didecanoylglycerol, 3 uM decanoyl-CoA, 1 ug/mL microsomal protein, and 1% DMSO. Following a 60 minute reaction incubation, reactions were stopped and CoA product derivatized with 30 uL of buffer containing 10 uM {4-[4-(4-amino-7,7-dimethyl-7H-pyrimido[4,5-b][1,4]oxazin-6-yl)phenyl]cyclohexyl}acetic acid and 50 uM 7-diethylamino-3-(4′-maleimidylphenyl)-4-methylcoumarin (CPM). […] IC50s were fitted using GraphPad Prism to a sigmoidal dose response.
`COC1(CC(=O)O)CCc2cc(-c3ccc(NC(=O)Nc4cccc(C(F)(F)F)c4)cc3)ccc2C1=O` (single isomer, unassigned) [Example 228]: the pIC50 was 8.16.

Take `O=C(O)CC1(CC(F)(F)F)CCc2cc(-c3ccc(NC(=O)Nc4cccc(Cl)c4)cc3)ccc2C1=O` (single isomer, unassigned) [Example 214, 2-(6-(4-(3-(3-Chlorophenyl)ureido)phenyl)-1-oxo-2-(2,2,2-trifluoroethyl)-1,2,3,4-tetrahydronaphthalen-2-yl)acetic acid]: the pIC50 was 9.22.

Turning to `CC1(CC(=O)O)CCc2cc(-c3ccc(NC(=O)Nc4cccc(Cl)c4)c(F)c3)ccc2C1=O` (centres unmarked) [Example 90], the pIC50 was 7.92.

Regarding `CCC1(CC(=O)O)CCc2cc(-c3ccc(NC(=O)Nc4ccccc4)c(F)c3)ccc2C1=O` (centres unmarked) [Example 141], the negative-log IC50 (pIC50) is 8.03.

Regarding `O=C(O)CC1(CC(F)(F)F)CCc2cc(-c3cnc(NC(=O)Nc4cccc(Cl)c4)cn3)ccc2C1=O` (centres unmarked) [Example 223], the pIC50 is 9.15.

As for `CCC1(CC(=O)O)CCc2cc(-c3ccc(NC(=O)Nc4cccc(Cl)c4)cc3Cl)ccc2C1=O` (single isomer, unassigned) [Example 213, 2-(6-(2-Chloro-4-(3-(3-chlorophenyl)ureido)phenyl)-2-ethyl-1-oxo-1,2,3,4-tetrahydronaphthalen-2-yl)acetic acid], the pIC50 is 8.23.

Consider `COC1(CC(=O)O)CCc2cc(-c3ccc(NC(=O)Nc4cccc(Cl)c4)cc3)ccc2C1=O` (centres unmarked) [Example 229], for which the pIC50 was 8.28.

As to `O=C(O)CC1(CC(F)(F)F)CCc2cc(-c3ccc(NC(=O)Nc4cc(Cl)cc(Cl)c4)cc3)ccc2C1=O` (centres unmarked) [Example 224], the pIC50 was 8.55.

In the case of `CC1(CC(=O)O)CCc2cc(-c3ccc(NC(=O)Nc4cccc(C(F)(F)F)c4)cn3)ccc2C1=O` (centres unmarked) [Example 109], the pIC50 was 7.85.

As to `CCc1ccc(NC(=O)Nc2cnc(-c3ccc4c(c3)CCC(CC(=O)O)(CC(F)(F)F)C4=O)cn2)cc1` (centres unmarked) [Example 220], the pIC50 was 9.52.

Regarding `O=C(O)CN1CCc2cc(-c3ccc(NC(=O)Nc4cccc(C(F)(F)F)c4)cc3)ccc2C1=O` [Example 1, 2-{1-oxo-6-[4-({[3-(trifluoromethyl)phenyl]carbamoyl}amino)phenyl]-1,2,3,4-tetrahydroisoquinolin-2-yl}acetic acid], the pIC50 was 5.73.

On to `CC[C@@]1(CC(=O)O)CCc2cc(-c3ccc(NC(=O)Nc4cccc(C(F)(F)F)c4)cc3)ccc2[C@@H]1O` (relative stereo) [Example 173, rel-2-[(1R,2S)-2-ethyl-1-hydroxy-6-[4-({[3-(trifluoromethyl)phenyl]carbamoyl}amino)phenyl]-1,2,3,4-tetrahydronaphthalen-2-yl]acetic acid], for which the pIC50 was 7.97.

In the case of `CCC(CC)NC(=O)Nc1cnc(-c2ccc3c(c2)CCC(CC(=O)O)(CC(F)(F)F)C3=O)cn1` (centres unmarked) [Example 219], the pIC50 was 5.23.

In the case of `CCC1(CC(=O)O)CCc2cc(-c3ccc(NC(=O)Nc4ccccc4)cc3Cl)ccc2C1=O` (centres unmarked) [Example 140], the negative-log IC50 (pIC50) is 7.50.

Take `O=C(O)CC1(CC(F)(F)F)CCc2cc(-c3ccc(NC(=O)NC4CCCCC4)cc3)ccc2C1=O` (centres unmarked) [Example 226]: the pIC50 is 8.21.

Turning to `O=C(O)CC1CCc2cc(-c3ccc(NC(=O)Nc4cccc(C(F)(F)F)c4)cc3)ccc2C1=O` (centres unmarked) [Example 47, 2-{1-oxo-6-[4-({[3-(trifluoromethyl)phenyl]carbamoyl}amino)phenyl]-1,2,3,4-tetrahydronaphthalen-2-yl}acetic acid], the pIC50 was 6.74.

For the molecule `O=C(O)CC1CCc2cc(-c3ccc(NC(=O)Nc4ccc(F)c(C(F)(F)F)c4)cc3)ccc2C1` (centres unmarked) [Example 20], the pIC50 was 6.23.

As for `COC1(CC(=O)O)CCc2cc(-c3ccc(NC(=O)Nc4cccc(Cl)c4)cc3)ccc2C1=O` (centres unmarked) [Example 192], the pIC50 was 7.97.

For the molecule `O=C(O)CCC1CCc2cc(-c3ccc(NC(=O)Nc4cccc(C(F)(F)F)c4)cc3)ccc2C1=O` (centres unmarked) [Example 69, 3-{1-oxo-6-[4-({[3-(trifluoromethyl)phenyl]carbamoyl}amino)phenyl]-1,2,3,4-tetrahydronaphthalen-2-yl}propanoic acid], the negative-log IC50 (pIC50) was 6.94.

In the case of `O=C(O)CC1CCc2cc(-c3ccc(NC(=O)Nc4cccc(C(F)(F)F)c4)cc3)ccc2C1O` (centres unmarked) [Example 68, 2-{1-hydroxy-6-[4-({[3-(trifluoromethyl)phenyl]carbamoyl}amino)phenyl]-1,2,3,4-tetrahydronaphthalen-2-yl}acetic acid], the pIC50 was 6.30.

Turning to `O=C(O)CC1(F)CCc2cc(-c3ccc(NC(=O)Nc4cccc(C(F)(F)F)c4)cc3)ccc2C1=O` (centres unmarked) [Example 182, 2-{2-fluoro-1-oxo-6-[4-({[3-(trifluoromethyl)phenyl]carbamoyl}amino)phenyl]-1,2,3,4-tetrahydronaphthalen-2-yl}acetic acid], the pIC50 was 7.32.

Turning to `O=C(O)CC1(O)CCc2cc(-c3ccc(NC(=O)Nc4cccc(C(F)(F)F)c4)cc3)ccc2C1` (centres unmarked) [Example 40, 2-{2-hydroxy-6-[4-({[3-(trifluoromethyl)phenyl]carbamoyl}amino)phenyl]-1,2,3,4-tetrahydronaphthalen-2-yl}acetic acid], the pIC50 was 6.45.

On to `CCc1ccc(NC(=O)Nc2ccc(-c3ccc4c(c3)CCC(CC(=O)O)(CC(F)(F)F)C4=O)cc2)cc1` (centres unmarked) [Example 225], for which the pIC50 is 8.92.

On to `CCC1(CC(=O)O)CCc2cc(-c3ccc(NC(=O)Nc4cccc(Cl)c4)cc3Cl)ccc2C1=O` (centres unmarked) [Example 139], for which the pIC50 is 7.97.

As to `O=C(O)CC1(CC(F)(F)F)CCc2cc(-c3cnc(NC(=O)NC4CCCCC4)cn3)ccc2C1=O` (single isomer, unassigned) [Example 216, 2-(6-(5-(3-cyclohexylureido)pyrazin-2-yl)-1-oxo-2-(2,2,2-trifluoroethyl)-1,2,3,4-tetrahydronaphthalen-2-yl)acetic acid], the pIC50 is 8.57.

In the case of `CCC1(CC(=O)O)CCc2cc(-c3ccc(NC(=O)Nc4cccc(C(F)(F)F)c4)c(F)c3)ccc2C1=O` (centres unmarked) [Example 143], the pIC50 was 7.95.

For `CC1(CC(=O)O)CCc2cc(-c3ccc(NC(=O)Nc4cccc(Cl)c4)cc3Cl)ccc2C1=O` (single isomer, unassigned) [Example 212, 2-(6-(2-chloro-4-(3-(3-chlorophenyl)ureido)phenyl)-2-methyl-1-oxo-1,2,3,4-tetrahydronaphthalen-2-yl)acetic acid], the pIC50 was 7.48.

For `O=C(O)CC1(CC(F)(F)F)CCc2cc(-c3cnc(NC(=O)NC4CCC4)cn3)ccc2C1=O` (centres unmarked) [Example 230], the pIC50 was 7.56.

For the molecule `CCC1(CC(=O)O)Cc2cc(-c3ccc(NC(=O)Nc4cccc(C(F)(F)F)c4)cc3)ccc2C1=O` (centres unmarked) [Example 42, 2-{2-ethyl-1-oxo-5-[4-({[3-(trifluoromethyl)phenyl]carbamoyl}amino)phenyl]-2,3-dihydro-1H-inden-2-yl}acetic acid], the pIC50 is 7.22.

As to `O=C(O)CC1(CC(F)(F)F)CCc2cc(-c3ccc(NC(=O)Nc4ccccc4)cc3)ccc2C1O` (centres unmarked) [Example 202], the pIC50 is 8.19.

As to `O=C(O)CC1(CC(F)(F)F)CCc2cc(-c3ccc(NC(=O)Nc4cccc(Cl)c4)cc3)ccc2C1=O` (centres unmarked) [Example 205], the pIC50 is 8.46.

As to `COC1(CC(=O)O)CCc2cc(-c3ccc(NC(=O)Nc4ccccc4)cc3)ccc2C1=O` (centres unmarked) [Example 190, 2-(2-methoxy-1-oxo-6-{4-[(phenylcarbamoyl)amino]phenyl}-1,2,3,4-tetrahydronaphthalen-2-yl)acetic acid], the pIC50 is 7.17.

Turning to `CC[C@@]1(CC(=O)O)CCc2cc(-c3ccc(NC(=O)Nc4cccc(Cl)c4)cn3)ccc2C1=O` [Example 164], the negative logarithm of the IC50 (pIC50) is 8.35.

`O=C(O)CC1(CO)CCc2cc(-c3ccc(NC(=O)Nc4cccc(Cl)c4)c(F)c3)ccc2C1=O` (centres unmarked) [Example 198, 2-(6-(4-(3-(3-Chlorophenyl)ureido)-3-fluorophenyl)-2-(hydroxymethyl)-1-oxo-1,2,3,4-tetrahydronaphthalen-2-yl)acetic acid]: the pIC50 is 7.26.

With `COCC1(CC(=O)O)CCc2cc(-c3ccc(NC(=O)Nc4cccc(C(F)(F)F)c4)cc3)ccc2C1=O` (centres unmarked) [Example 197, 2-[2-(methoxymethyl)-1-oxo-6-[4-({[3-(trifluoromethyl)phenyl]carbamoyl}amino)phenyl]-1,2,3,4-tetrahydronaphthalen-2-yl]acetic acid], the pIC50 is 8.64.
